Test results: PMC11191095, “QSAR Reveals Decreased Lipophilicity of Polar Residues Determines the Selectivity of Antimicrobial Peptide Activity” (ACS Omega, 2024)
Where a SMILES comes first, the peptide text is derived from it.

Key:
Assay in all cases: microbe, parasite or virus in culture
P. aeruginosa NCTC 13437 = type: cell-based, Pseudomonas aeruginosa; conditions: P. aeruginosa NCTC 13437 (R)
Method in brief: (§1)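 Peptides 128→2 μg/mL, 2-fold series; inoculum ~5 × 10^5 CFU/mL from overnight culture (OD600 0.01, mixed 1:1). MHB non-cation-adjusted for bacteria, RPMI 1640 + 2% glucose for fungi. 37 °C, 20 h, OD600. MIC50/MIC90 at 50%/90% inhibition; n ≥ 3.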

C. krusei NCPF 3876 = type: cell-based; conditions: C. krusei NCPF 3876
Method in brief: as §1

C. glabrata NCPF 8018 = type: cell-based; conditions: C. glabrata NCPF 8018
Method in brief: as §1

C. albicans NCPF 3281 = type: cell-based; conditions: C. albicans NCPF 3281
Method in brief: as §1

[1] = system: C. parapsilosis NCPF 3209; type: cell-based; conditions: C. parapsilosis NCPF 3209
Method in brief: as §1

C. tropicalis NCPF 8760 = type: cell-based; conditions: C. tropicalis NCPF 8760
Method in brief: as §1

[2] = system: S. aureus (MSSA) ATCC 9144; type: cell-based, Staphylococcus aureus; conditions: S. aureus (MSSA) ATCC 9144 (S)
Method in brief: as §1

S. aureus (MRSA) 1199B = type: cell-based, Staphylococcus aureus; conditions: S. aureus (MRSA) 1199B (R)
Method in brief: as §1

[3] = system: S. aureus (MRSA) NCTC 13616; type: cell-based, Staphylococcus aureus; conditions: S. aureus (MRSA) NCTC 13616 (R)
Method in brief: as §1

E. coli LEC001 = type: cell-based, Escherichia coli; conditions: E. coli LEC001 (R)
Method in brief: as §1

E. coli NCTC 12923 = type: cell-based, Escherichia coli; conditions: E. coli NCTC 12923 (S)
Method in brief: as §1

A. baumannii ATCC 17978 = type: cell-based, Acinetobacter baumannii; conditions: A. baumannii ATCC 17978 (S)
Method in brief: as §1

A. baumannii AYE = type: cell-based, Acinetobacter baumannii; conditions: A. baumannii AYE (R)
Method in brief: as §1

C. auris TDG 1912 = type: cell-based, Candida auris; conditions: C. auris TDG 1912
Method in brief: as §1

K. pneumoniae NCTC 13368 = type: cell-based, Klebsiella pneumoniae; conditions: K. pneumoniae NCTC 13368 (R)
Method in brief: as §1

K. pneumoniae M6 = type: cell-based, Klebsiella pneumoniae; conditions: K. pneumoniae M6 (S)
Method in brief: as §1

[4] = MHB, 37 °C, 20 h, OD600, min. three biological repeats
[5] = 50% growth inhibition, RPMI 1640 + 2% glucose, 37 °C, 20 h
[6] = 90% growth inhibition, RPMI 1640 + 2% glucose, 37 °C, 20 h
[7] = MHB, ~5×10^5 CFU/mL, 37 °C, 20 h, OD600, min. three biological repeats
[8] = 50% growth inhibition, RPMI 1640 + 2% glucose, 37 °C, 20 h, OD600
[9] = 90% growth inhibition, RPMI 1640 + 2% glucose, 37 °C, 20 h, OD600

## C[C@H](NC(=O)CNC(=O)[C@H](CCCCN)NC(=O)[C@@H](N)CS)C(=O)N[C@@H](Cc1ccccc1)C(=O)N[C@@H](CCCCN)C(=O)N[C@@H](CCC(N)=O)C(=O)N[C@H](C(=O)N[C@@H](CS)C(=O)N[C@@H](CCCCN)C(=O)N[C@@H](CS)C(=O)N[C@@H](Cc1ccc(O)cc1)C(N)=O)[C@@H](C)O [Os(11-22)a] (H-CKGAFKQTCKCY-NH2; N-terminus assumed)
P. aeruginosa NCTC 13437; [4]
  Modal MIC: > 128 µg/mL
P. aeruginosa NCTC 13437; shown in µM
  Modal MIC: > 91.7 µM
C. krusei NCPF 3876; [5]
  Modal MIC50: > 128 µg/mL
C. krusei NCPF 3876; [6]
  Modal MIC90: > 128 µg/mL
C. krusei NCPF 3876; shown in µM
  Modal MIC50: > 91.7 µM
  Modal MIC90: > 91.7 µM
C. glabrata NCPF 8018; [5]
  Modal MIC50: > 128 µg/mL
C. glabrata NCPF 8018; [6]
  Modal MIC90: > 128 µg/mL
C. glabrata NCPF 8018; shown in µM
  Modal MIC50: > 91.7 µM
  Modal MIC90: > 91.7 µM
C. albicans NCPF 3281; [5]
  Modal MIC50: > 128 µg/mL
C. albicans NCPF 3281; [6]
  Modal MIC90: > 128 µg/mL
C. albicans NCPF 3281; shown in µM
  Modal MIC50: > 91.7 µM
  Modal MIC90: > 91.7 µM
[1]; [5]
  Modal MIC50: > 128 µg/mL
[1]; [6]
  Modal MIC90: > 128 µg/mL
[1]; shown in µM
  Modal MIC50: > 91.7 µM
  Modal MIC90: > 91.7 µM
C. tropicalis NCPF 8760; [5]
  Modal MIC50: > 128 µg/mL
C. tropicalis NCPF 8760; [6]
  Modal MIC90: > 128 µg/mL
C. tropicalis NCPF 8760; shown in µM
  Modal MIC50: > 91.7 µM
  Modal MIC90: > 91.7 µM
[2]; [4]
  Modal MIC: > 128 µg/mL
[2]; shown in µM
  Modal MIC: > 91.7 µM
S. aureus (MRSA) 1199B; [4]
  Modal MIC: > 128 µg/mL
S. aureus (MRSA) 1199B; shown in µM
  Modal MIC: > 91.7 µM
[3]; [4]
  Modal MIC: > 128 µg/mL
[3]; shown in µM
  Modal MIC: > 91.7 µM
E. coli LEC001; [4]
  Modal MIC: > 128 µg/mL
E. coli LEC001; shown in µM
  Modal MIC: > 91.7 µM
E. coli NCTC 12923; [7]
  Modal MIC: > 128 µg/mL
E. coli NCTC 12923; shown in µM
  Modal MIC: > 91.7 µM
A. baumannii ATCC 17978; [4]
  Modal MIC: > 128 µg/mL
A. baumannii ATCC 17978; shown in µM
  Modal MIC: > 91.7 µM
A. baumannii AYE; [4]
  Modal MIC: > 128 µg/mL
A. baumannii AYE; shown in µM
  Modal MIC: > 91.7 µM
C. auris TDG 1912; [8]
  Modal MIC50: > 128 µg/mL
C. auris TDG 1912; [9]
  Modal MIC90: > 128 µg/mL
C. auris TDG 1912; shown in µM
  Modal MIC50: > 91.7 µM
  Modal MIC90: > 91.7 µM
K. pneumoniae NCTC 13368; [4]
  Modal MIC: > 128 µg/mL
K. pneumoniae NCTC 13368; shown in µM
  Modal MIC: > 91.7 µM
K. pneumoniae M6; [4]
  Modal MIC: > 128 µg/mL
K. pneumoniae M6; shown in µM
  Modal MIC: > 91.7 µM

## CC[C@H](C)[C@H](NC(=O)CNC(=O)[C@@H](N)CCCCN)C(=O)N[C@@H](CCCNC(=N)N)C(=O)NCC(=O)N[C@@H](Cc1ccc(O)cc1)C(=O)N[C@@H](CCCCN)C(=O)NCC(=O)NCC(=O)N[C@@H](Cc1ccc(O)cc1)C(=O)N[C@@H](CS)C(=O)N[C@@H](CCCCN)C(=O)NCC(=O)N[C@@H](C)C(=O)N[C@@H](Cc1ccccc1)C(=O)N[C@@H](CCCCN)C(=O)N[C@@H](CCC(N)=O)C(=O)N[C@H](C(=O)N[C@@H](CS)C(=O)N[C@@H](CCCCN)C(=O)N[C@@H](CS)C(=O)N[C@@H](Cc1ccc(O)cc1)C(=O)O)[C@@H](C)O [Os] (H-KGIRGYKGGYCKGAFKQTCKCY-OH; N-terminus and C-terminus assumed)
P. aeruginosa NCTC 13437; [4]
  Modal MIC: > 128 µg/mL
P. aeruginosa NCTC 13437; shown in µM
  Modal MIC: > 51.7 µM
C. krusei NCPF 3876; [5]
  Modal MIC50: > 128 µg/mL
C. krusei NCPF 3876; [6]
  Modal MIC90: > 128 µg/mL
C. krusei NCPF 3876; shown in µM
  Modal MIC50: > 51.7 µM
  Modal MIC90: > 51.7 µM
C. glabrata NCPF 8018; [5]
  Modal MIC50: > 128 µg/mL
C. glabrata NCPF 8018; [6]
  Modal MIC90: > 128 µg/mL
C. glabrata NCPF 8018; shown in µM
  Modal MIC50: > 51.7 µM
  Modal MIC90: > 51.7 µM
C. albicans NCPF 3281; [5]
  Modal MIC50: > 128 µg/mL
C. albicans NCPF 3281; [6]
  Modal MIC90: > 128 µg/mL
C. albicans NCPF 3281; shown in µM
  Modal MIC50: > 51.7 µM
  Modal MIC90: > 51.7 µM
[1]; [5]
  Modal MIC50: > 128 µg/mL
[1]; [6]
  Modal MIC90: > 128 µg/mL
[1]; shown in µM
  Modal MIC50: > 51.7 µM
  Modal MIC90: > 51.7 µM
C. tropicalis NCPF 8760; [5]
  Modal MIC50: > 128 µg/mL
C. tropicalis NCPF 8760; [6]
  Modal MIC90: > 128 µg/mL
C. tropicalis NCPF 8760; shown in µM
  Modal MIC50: > 51.7 µM
  Modal MIC90: > 51.7 µM
[2]; [4]
  Modal MIC: > 128 µg/mL
[2]; shown in µM
  Modal MIC: > 51.7 µM
S. aureus (MRSA) 1199B; [4]
  Modal MIC: > 128 µg/mL
S. aureus (MRSA) 1199B; shown in µM
  Modal MIC: > 51.7 µM
[3]; [4]
  Modal MIC: > 128 µg/mL
[3]; shown in µM
  Modal MIC: > 51.7 µM
E. coli LEC001; [4]
  Modal MIC: > 128 µg/mL
E. coli LEC001; shown in µM
  Modal MIC: > 51.7 µM
E. coli NCTC 12923; [7]
  Modal MIC: > 128 µg/mL
E. coli NCTC 12923; shown in µM
  Modal MIC: > 51.7 µM
A. baumannii ATCC 17978; [4]
  Modal MIC: > 128 µg/mL
A. baumannii ATCC 17978; shown in µM
  Modal MIC: > 51.7 µM
A. baumannii AYE; [4]
  Modal MIC: > 128 µg/mL
A. baumannii AYE; shown in µM
  Modal MIC: > 51.7 µM
C. auris TDG 1912; [8]
  Modal MIC50: > 128 µg/mL
C. auris TDG 1912; [9]
  Modal MIC90: > 128 µg/mL
C. auris TDG 1912; shown in µM
  Modal MIC50: > 51.7 µM
  Modal MIC90: > 51.7 µM
K. pneumoniae NCTC 13368; [4]
  Modal MIC: > 128 µg/mL
K. pneumoniae NCTC 13368; shown in µM
  Modal MIC: > 51.7 µM
K. pneumoniae M6; [4]
  Modal MIC: > 128 µg/mL
K. pneumoniae M6; shown in µM
  Modal MIC: > 51.7 µM
